Experiments:
HUVEC [1] = assay: Inhibition of bFGF-stimulated HUVEC cell proliferation treated before 2 hrs of bFGF challenge assessed after 72 hrs; format: functional, cell-based; details: Homo sapiens
[2] = molecular target: Vascular endothelial growth factor receptor 2 (Homo sapiens, UniProt P35968); assay: Inhibition of recombinant KDR by HTRF assay
[3] = AUC (0 to infinity) in Sprague-Dawley rat at 1 mg/kg, iv or 10 mg/kg, po; format: ADME, organism-based; details: plasma
[4] = Volume of distribution at steady state in Sprague-Dawley rat at 1 mg/kg, iv or 10 mg/kg, po; format: ADME, organism-based; details: in vivo, read-out: Vdss
[5] = Clearance in Sprague-Dawley rat at 1 mg/kg, iv or 10 mg/kg, po; format: ADME, organism-based; details: in vivo
[6] = Bioavailability in Sprague-Dawley rat at 1 mg/kg, iv or 10 mg/kg, po; format: ADME, organism-based; details: in vivo
[7] = Half life in Sprague-Dawley rat at 1 mg/kg, iv or 10 mg/kg, po; format: ADME, organism-based; details: in vivo
HUVEC [8] = assay: Inhibition of VEGF-stimulated HUVEC cell proliferation treated before 2 hrs of VEGF challenge assessed after 72 hrs; format: functional, cell-based; details: Homo sapiens
Aurora kinase B = Aurora kinase B (Homo sapiens, UniProt Q96GD4); assay: Inhibition of aurora 1 kinase
Sequence of Aurora kinase B (Q96GD4 whole entry, canonical isoform): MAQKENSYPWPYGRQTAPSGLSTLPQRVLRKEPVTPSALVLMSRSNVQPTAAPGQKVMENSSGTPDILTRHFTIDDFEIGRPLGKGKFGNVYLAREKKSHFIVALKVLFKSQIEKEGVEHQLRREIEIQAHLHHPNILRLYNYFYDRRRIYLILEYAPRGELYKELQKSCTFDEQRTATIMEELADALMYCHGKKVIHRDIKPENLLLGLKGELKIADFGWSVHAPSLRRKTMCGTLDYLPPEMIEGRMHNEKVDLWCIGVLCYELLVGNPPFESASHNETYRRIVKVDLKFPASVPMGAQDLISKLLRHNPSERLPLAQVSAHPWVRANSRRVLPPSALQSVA

[9] = molecular target: Phosphatidylinositol 4,5-bisphosphate 3-kinase catalytic subunit alpha isoform (Homo sapiens, UniProt P42336); assay: Inhibition of PI3K
Sequence of Phosphatidylinositol 4,5-bisphosphate 3-kinase catalytic subunit alpha isoform (P42336 whole entry, canonical isoform): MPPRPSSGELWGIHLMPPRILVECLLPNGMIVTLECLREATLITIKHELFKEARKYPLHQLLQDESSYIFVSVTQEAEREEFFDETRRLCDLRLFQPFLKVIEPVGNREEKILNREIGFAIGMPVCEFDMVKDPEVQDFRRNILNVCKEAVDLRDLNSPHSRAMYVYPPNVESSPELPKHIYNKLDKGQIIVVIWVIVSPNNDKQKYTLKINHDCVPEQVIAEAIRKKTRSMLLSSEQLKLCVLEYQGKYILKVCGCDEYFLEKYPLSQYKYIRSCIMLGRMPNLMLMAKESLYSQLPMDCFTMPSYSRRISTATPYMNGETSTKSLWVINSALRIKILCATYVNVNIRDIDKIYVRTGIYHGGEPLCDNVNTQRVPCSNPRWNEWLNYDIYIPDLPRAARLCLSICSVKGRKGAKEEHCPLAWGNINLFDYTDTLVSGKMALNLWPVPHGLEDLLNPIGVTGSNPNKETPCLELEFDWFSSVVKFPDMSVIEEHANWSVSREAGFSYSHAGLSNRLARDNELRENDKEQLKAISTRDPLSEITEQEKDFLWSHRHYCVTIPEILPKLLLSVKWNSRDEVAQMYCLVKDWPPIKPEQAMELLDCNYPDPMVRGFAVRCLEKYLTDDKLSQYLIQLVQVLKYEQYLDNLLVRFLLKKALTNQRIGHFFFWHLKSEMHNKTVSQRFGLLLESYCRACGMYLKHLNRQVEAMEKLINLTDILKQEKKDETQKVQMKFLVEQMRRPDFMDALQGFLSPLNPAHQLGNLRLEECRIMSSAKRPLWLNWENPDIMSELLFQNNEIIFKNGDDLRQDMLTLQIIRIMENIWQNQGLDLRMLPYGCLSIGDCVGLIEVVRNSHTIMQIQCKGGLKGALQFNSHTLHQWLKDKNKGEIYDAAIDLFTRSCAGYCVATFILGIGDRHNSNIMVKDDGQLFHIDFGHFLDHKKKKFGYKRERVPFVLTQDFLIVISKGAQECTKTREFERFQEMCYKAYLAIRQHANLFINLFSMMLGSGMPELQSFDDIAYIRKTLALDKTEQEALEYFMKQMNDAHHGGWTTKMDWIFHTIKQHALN

[10] = molecular target: Mitogen-activated protein kinase 14 (Homo sapiens, UniProt Q16539); assay: Inhibition of p38alpha
Sequence of Mitogen-activated protein kinase 14 (Q16539 whole entry): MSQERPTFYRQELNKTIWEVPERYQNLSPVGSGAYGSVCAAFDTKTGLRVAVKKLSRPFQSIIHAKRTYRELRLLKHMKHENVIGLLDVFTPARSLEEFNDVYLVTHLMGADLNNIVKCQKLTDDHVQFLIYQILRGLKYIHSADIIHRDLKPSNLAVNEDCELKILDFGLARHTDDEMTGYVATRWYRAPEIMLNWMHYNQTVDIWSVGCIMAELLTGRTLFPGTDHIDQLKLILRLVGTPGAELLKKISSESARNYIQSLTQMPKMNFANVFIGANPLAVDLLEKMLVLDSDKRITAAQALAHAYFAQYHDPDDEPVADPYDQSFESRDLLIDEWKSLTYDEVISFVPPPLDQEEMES

Aurora kinase A = molecular target: T1, Aurora kinase A (Homo sapiens, UniProt O14965); assay: Inhibition of aurora 2 kinase
T1 sequence (O14965 whole entry): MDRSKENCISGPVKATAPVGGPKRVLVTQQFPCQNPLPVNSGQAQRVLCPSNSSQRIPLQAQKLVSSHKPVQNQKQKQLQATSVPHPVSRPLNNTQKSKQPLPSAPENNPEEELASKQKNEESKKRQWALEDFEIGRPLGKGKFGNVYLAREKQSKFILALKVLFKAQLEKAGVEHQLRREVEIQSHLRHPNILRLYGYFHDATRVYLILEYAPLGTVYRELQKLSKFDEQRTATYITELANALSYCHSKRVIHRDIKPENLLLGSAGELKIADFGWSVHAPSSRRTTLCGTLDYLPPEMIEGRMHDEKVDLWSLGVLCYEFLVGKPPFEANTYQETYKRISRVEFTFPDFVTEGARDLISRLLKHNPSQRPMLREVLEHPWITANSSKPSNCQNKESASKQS

Angiopoietin-1 receptor = Angiopoietin-1 receptor (Homo sapiens, UniProt Q02763); assay: Inhibition of Tie 2
Sequence of Angiopoietin-1 receptor (Q02763 whole entry): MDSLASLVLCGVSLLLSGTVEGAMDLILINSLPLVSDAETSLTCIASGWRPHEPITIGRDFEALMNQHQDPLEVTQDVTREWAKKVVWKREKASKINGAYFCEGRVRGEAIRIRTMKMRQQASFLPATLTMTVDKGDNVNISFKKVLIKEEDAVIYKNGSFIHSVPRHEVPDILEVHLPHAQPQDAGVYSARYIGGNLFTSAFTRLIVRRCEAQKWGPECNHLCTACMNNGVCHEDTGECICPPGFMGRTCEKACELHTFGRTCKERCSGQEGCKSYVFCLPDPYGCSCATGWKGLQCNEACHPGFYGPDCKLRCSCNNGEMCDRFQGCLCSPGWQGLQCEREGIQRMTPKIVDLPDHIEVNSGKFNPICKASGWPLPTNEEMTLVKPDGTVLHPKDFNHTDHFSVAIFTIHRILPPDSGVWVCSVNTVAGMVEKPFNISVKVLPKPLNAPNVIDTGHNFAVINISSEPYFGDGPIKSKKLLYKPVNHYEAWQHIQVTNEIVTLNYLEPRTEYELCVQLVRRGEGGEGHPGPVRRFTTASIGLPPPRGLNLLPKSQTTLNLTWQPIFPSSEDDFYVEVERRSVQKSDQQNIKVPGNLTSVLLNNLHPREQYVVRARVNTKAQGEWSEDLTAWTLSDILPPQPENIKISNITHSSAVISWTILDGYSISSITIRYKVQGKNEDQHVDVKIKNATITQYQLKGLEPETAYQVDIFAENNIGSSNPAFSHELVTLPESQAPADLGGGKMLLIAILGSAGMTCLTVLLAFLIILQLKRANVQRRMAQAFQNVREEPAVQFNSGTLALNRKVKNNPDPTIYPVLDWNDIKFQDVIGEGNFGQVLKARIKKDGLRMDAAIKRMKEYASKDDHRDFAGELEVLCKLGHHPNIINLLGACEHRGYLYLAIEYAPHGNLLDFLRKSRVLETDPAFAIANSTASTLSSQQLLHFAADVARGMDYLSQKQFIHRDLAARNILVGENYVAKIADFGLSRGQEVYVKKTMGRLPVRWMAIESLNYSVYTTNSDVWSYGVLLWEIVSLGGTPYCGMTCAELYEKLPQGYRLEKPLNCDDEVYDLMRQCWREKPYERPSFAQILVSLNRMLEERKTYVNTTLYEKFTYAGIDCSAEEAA

[11] = molecular target: Hepatocyte growth factor receptor (Homo sapiens, UniProt P08581); assay: Inhibition of cMET
Mus musculus [12] = assay: Plasma concentration in mouse VEGF expressing HEK293 cells xenografted in athymic nude mouse at 30 mg/kg, po; format: ADME, organism-based; set-up: dose 30 mg/kg, route oral; details: in vivo
Mus musculus [13] = assay: Plasma concentration in mouse VEGF expressing HEK293 cells xenografted in athymic nude mouse at 10 mg/kg, po; format: ADME, organism-based; set-up: dose 10 mg/kg, route oral; details: in vivo
HEK293 = assay: Inhibition of vascular permeability in mouse VEGF expressing HEK293 cells xenografted in po dosed athymic nude mouse; format: functional, organism-based; details: Homo sapiens

Sequence of Vascular endothelial growth factor receptor 2 (P35968 whole entry): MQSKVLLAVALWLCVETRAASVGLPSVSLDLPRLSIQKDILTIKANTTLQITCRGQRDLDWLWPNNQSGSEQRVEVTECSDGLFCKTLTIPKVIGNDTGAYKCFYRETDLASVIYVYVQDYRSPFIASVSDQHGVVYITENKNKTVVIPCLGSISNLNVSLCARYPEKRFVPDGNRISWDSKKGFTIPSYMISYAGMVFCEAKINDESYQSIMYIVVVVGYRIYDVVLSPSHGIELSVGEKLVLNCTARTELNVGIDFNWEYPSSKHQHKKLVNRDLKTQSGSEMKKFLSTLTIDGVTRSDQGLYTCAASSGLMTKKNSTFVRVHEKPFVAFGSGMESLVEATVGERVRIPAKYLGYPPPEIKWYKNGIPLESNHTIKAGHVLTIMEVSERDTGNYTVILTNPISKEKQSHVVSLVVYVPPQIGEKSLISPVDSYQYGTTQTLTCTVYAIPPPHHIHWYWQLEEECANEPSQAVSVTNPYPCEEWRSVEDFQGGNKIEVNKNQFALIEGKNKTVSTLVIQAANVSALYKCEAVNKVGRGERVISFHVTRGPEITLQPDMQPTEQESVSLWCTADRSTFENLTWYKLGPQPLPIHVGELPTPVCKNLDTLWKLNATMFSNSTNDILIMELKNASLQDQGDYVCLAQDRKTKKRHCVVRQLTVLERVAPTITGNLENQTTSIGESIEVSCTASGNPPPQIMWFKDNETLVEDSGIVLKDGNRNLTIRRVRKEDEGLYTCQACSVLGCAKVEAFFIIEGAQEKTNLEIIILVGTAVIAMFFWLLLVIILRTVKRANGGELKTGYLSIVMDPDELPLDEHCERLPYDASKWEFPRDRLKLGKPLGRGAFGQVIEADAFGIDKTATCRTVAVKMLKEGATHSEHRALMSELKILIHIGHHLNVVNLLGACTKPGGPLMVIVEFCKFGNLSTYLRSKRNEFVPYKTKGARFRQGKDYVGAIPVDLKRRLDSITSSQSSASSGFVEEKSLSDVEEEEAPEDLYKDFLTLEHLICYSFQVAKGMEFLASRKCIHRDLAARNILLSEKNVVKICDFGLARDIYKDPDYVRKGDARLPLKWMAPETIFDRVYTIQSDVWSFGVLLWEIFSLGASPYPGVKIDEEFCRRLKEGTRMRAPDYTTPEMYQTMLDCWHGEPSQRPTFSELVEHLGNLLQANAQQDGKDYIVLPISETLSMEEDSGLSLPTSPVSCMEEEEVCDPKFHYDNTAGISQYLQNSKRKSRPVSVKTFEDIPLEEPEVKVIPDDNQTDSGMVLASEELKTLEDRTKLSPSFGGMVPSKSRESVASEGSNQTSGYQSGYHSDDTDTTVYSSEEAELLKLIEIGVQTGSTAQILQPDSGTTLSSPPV

COc1cc2nccc(Oc3ccc4c(N)nn(C)c4c3)c2cc1OC
IC50 (HUVEC [1]): > 1000 nM
IC50 [2]: 1700 nM

COc1cc2nccc(Oc3ccc4c(NC(=O)c5ccccc5Cl)nn(C)c4c3)c2cc1OC
IC50 (HUVEC [1]): > 1000 nM
IC50 [2]: 8 nM

COc1cc2nccc(Oc3ccc4c(NC(=O)Nc5ccccc5)nn(C)c4c3)c2cc1OC
IC50 (HUVEC [1]): > 1000 nM
AUC(0-inf) [3]: 121 ng·h/mL
IC50 [2]: 2 nM
Vd [4]: 2 L/kg
clearance [5]: 6.67 mL/min/kg
bioavailability [6]: 2%
half-life [7]: 4.3 h
IC50 (HUVEC [8]): 6 nM

COc1ccc(C(=O)Nc2nn(C)c3cc(Oc4ccnc5cc(OC)c(OC)cc45)ccc23)cc1
IC50 (HUVEC [1]): > 1000 nM
IC50 [2]: 3 nM
IC50 (HUVEC [8]): 32 nM

COc1cc2nccc(Oc3ccc4c(NC(=O)c5ccc(C(F)(F)F)cc5)nn(C)c4c3)c2cc1OC
IC50 (HUVEC [1]): > 1000 nM
IC50 [2]: 3 nM
IC50 (HUVEC [8]): 79 nM

CCCNc1nn(C)c2cc(Oc3ccnc4cc(OC)c(OC)cc34)ccc12
IC50 (HUVEC [1]): > 1000 nM
IC50 [2]: 1110 nM

COc1cc2nccc(Oc3ccc4c(NC(=O)Nc5ccc(C(F)(F)F)cc5Cl)nn(C)c4c3)c2cc1OC
IC50 (HUVEC [1]): > 1000 nM
IC50 [2]: 8 nM
IC50 (HUVEC [8]): 1150 nM

COc1cc2nccc(Oc3ccc4c(NC(=O)c5cccc(C)c5)nn(C)c4c3)c2cc1OC
IC50 (HUVEC [1]): > 1000 nM
AUC(0-inf) [3]: 153 ng·h/mL
IC50 [2]: 2 nM
Vd [4]: 2.4 L/kg
clearance [5]: 20 mL/min/kg
bioavailability [6]: 12%
half-life [7]: 2.7 h
IC50 (HUVEC [8]): 2 nM

COc1cc2nccc(Oc3ccc4c(NC(=O)c5ccc(F)c(Cl)c5)nn(C)c4c3)c2cc1OC
IC50 (HUVEC [1]): > 1000 nM
IC50 [2]: 3 nM
Vd [4]: 2.1 L/kg
clearance [5]: 21.7 mL/min/kg
half-life [7]: 1.5 h
IC50 (HUVEC [8]): 9 nM

COc1cc2nccc(Oc3ccc4c(NC(=O)C5CC5)nn(C)c4c3)c2cc1OC
IC50 (HUVEC [1]): > 1000 nM
IC50 [2]: 344 nM

CCNc1nn(C)c2cc(Oc3ccnc4cc(OC)c(OC)cc34)ccc12
IC50 (HUVEC [1]): > 1000 nM
IC50 [2]: 370 nM

COc1cc2nccc(Oc3ccc4c(Nc5ccccc5)cccc4c3)c2cc1OC
IC50 [2]: 2 nM

COc1ccc(Nc2nn(C)c3cc(Oc4ccnc5cc(OC)c(OC)cc45)ccc23)cc1
IC50 (HUVEC [1]): > 1000 nM
IC50 [2]: 160 nM

COc1cc2nccc(Oc3ccc4c(NC(=O)c5cccc(C(F)(F)F)c5)nn(C)c4c3)c2cc1OC
IC50 (Aurora kinase B): 45 nM
IC50 (HUVEC [1]): > 1000 nM
IC50 [9]: 3250 nM
IC50 [10]: 1650 nM
IC50 (Aurora kinase A): 764 nM
IC50 (Angiopoietin-1 receptor): 121 nM
AUC(0-inf) [3]: 1530 ng·h/mL
IC50 [2]: 1 nM
Vd [4]: 1.4 L/kg
clearance [5]: 11.7 mL/min/kg
IC50 [11]: 3320 nM
Cp (Mus musculus [12]): 347 ng/mL
Cp (Mus musculus [13]): 181 ng/mL
bioavailability [6]: 46%
half-life [7]: 2.2 h
IC50 (HUVEC [8]): 9 nM
Activity (HEK293): Dose-dependent effect

COc1cc2nccc(Oc3ccc4c(Nc5ccccc5)nn(C)c4c3)c2cc1OC
IC50 (HUVEC [1]): > 1000 nM
IC50 [2]: 270 nM

COc1cccc(Nc2nn(C)c3cc(Oc4ccnc5cc(OC)c(OC)cc45)ccc23)c1
IC50 (HUVEC [1]): > 1000 nM
IC50 [2]: 230 nM

COc1cc2nccc(Oc3ccc4c(NC(=O)c5ccc(Cl)cc5)nn(C)c4c3)c2cc1OC
IC50 (HUVEC [1]): > 1000 nM
IC50 [2]: 5 nM
IC50 (HUVEC [8]): 61 nM

COc1cc2nccc(Oc3ccc4c(NC(=O)c5cc(Cl)ccn5)nn(C)c4c3)c2cc1OC
IC50 (HUVEC [1]): > 1000 nM
IC50 [2]: 2 nM
IC50 (HUVEC [8]): 27 nM

COc1ccccc1Nc1cccc2cc(Oc3ccnc4cc(OC)c(OC)cc34)ccc12
IC50 [2]: 1 nM

COc1cc2nccc(Oc3ccc4c(NC(=O)Nc5ccc(C)cc5)nn(C)c4c3)c2cc1OC
IC50 (HUVEC [1]): > 1000 nM
IC50 [2]: 2 nM
IC50 (HUVEC [8]): 3 nM

COc1cc2nccc(Oc3ccc4c(Nc5ccc(C(F)(F)F)cc5)nn(C)c4c3)c2cc1OC
IC50 (HUVEC [1]): > 1000 nM
IC50 [2]: 70 nM

COc1cc2nccc(Oc3ccc4c(NCc5ccccc5)nn(C)c4c3)c2cc1OC
IC50 (HUVEC [1]): > 1000 nM
IC50 [2]: 60 nM

CCCCNc1nn(C)c2cc(Oc3ccnc4cc(OC)c(OC)cc34)ccc12
IC50 (HUVEC [1]): > 1000 nM
IC50 [2]: 800 nM

COc1cc2nccc(Oc3ccc4c(NC(=O)c5cc(C(F)(F)F)cc(C(F)(F)F)c5)nn(C)c4c3)c2cc1OC
IC50 (HUVEC [1]): > 1000 nM
IC50 [2]: 2 nM
IC50 (HUVEC [8]): 58 nM

COc1ccc(NC(=O)Nc2nn(C)c3cc(Oc4ccnc5cc(OC)c(OC)cc45)ccc23)cc1
IC50 (HUVEC [1]): > 1000 nM
IC50 [2]: 1 nM
IC50 (HUVEC [8]): 7 nM
